Experiments:
[1] = Prodrug conversion in Tris/HCl buffer assessed as Escherichia coli MPT synthase-mediated 2-amino-6-(3,4-dihydroxybut-1-ynyl)pteridin-4(3H)-one formation after 30 mins by HPLC analysis; type: ADME; conditions: 0.5 h
[2] = Half life of aerial oxidation of the compound at pH 3; type: physicochemical
[3] = Prodrug conversion in HEPES buffer assessed as Escherichia coli MPT synthase-mediated 2-amino-6-(3,4-dihydroxybut-1-ynyl)pteridin-4(3H)-one formation measured as activation of human apo-sulfite oxidase incubated for 30 mins prior to apo-sulfite oxidase addition measured after 30 mins by spectrophotometric analysis in presence of gephyrin; conditions: 0.5 h

Drug metabolism [1]	half-life [2]	Drug metabolism [3]	SMILES
Active	10.6 h	Active	Nc1nc2c(c(=O)[nH]1)N[C@@H]1[C@H](N2)O[C@@H]2COP(=O)(O)O[C@@H]2C1(O)O [FOSDENOPTERIN]
Dose-dependent effect		Dose-dependent effect	Br.Nc1nc2c(c(=O)[nH]1)N[C@@H]1[C@H](N2)O[C@@H]2COP(=O)(O)O[C@@H]2C1(O)O

Reference: ChEMBL document CHEMBL2331113, “Synthesis of cyclic pyranopterin monophosphate, a biosynthetic intermediate in the molybdenum cofactor pathway” (J Med Chem, 2013)
